A word on the IC50: it is the midpoint of a concentration-inhibition curve.

The test relates to HepG2 cells. In words: Test Example 2: inhibition of apolipoprotein B secretion from HepG2 cells, ELISA (also used for metabolites in Test Example 8). Type of test: cell-based. The conditions noted are these: Homo sapiens, 24 hours, apo B in supernatant by ELISA, read-out: Test Example 2 Inhibition of apo B secretion IC50. The method, then:
Inhibition of Apolipoprotein B Secretion from HepG2 Cells
HepG2 cells were suspended in Dulbecco's Modified Eagle's Medium (DMEM) (containing 10% fetal bovine serum, 100 units/mL penicillin and 100 μg/mL streptomycin), and placed on a 96-well plate (4×10^4 cells/well), then incubated for 24 hours. After removal of the medium, DMEM was replaced by a medium containing a sample dissolved in DMSO or a medium containing DMSO (concentration of DMSO: 0.5%) and incubation was further performed for 24 hours, after which the supernatant was recovered, and concentration of apo B in the supernatant was assayed by Enzyme-Linked Immunosorbent Assay (ELISA)
ELISA was carried out as follows. Anti-human apo B monoclonal antibody (0.5 μg/well) diluted with a solution of sodium carbonate in sodium bicarbonate buffer (50 mL, pH 9.6) was placed in a 96-well plate for ELISA, and allowed to stand at room temperature for 15 hours. After washing the plate, a blocking solution (250 μL/well) was placed in the well, and allowed to stand at room temperature for 1.5 hours. After washing the plate, a standard and a sample (100 μL/well) were placed in the well and allowed to stand at room temperature for one hour. The standard was prepared by adjusting the concentration of the purified human apo B with the DMEM to 0 to 1000 ng/mL. After washing the plate, an anti-human apo B polyclonal antibody labeled with a horse radish peroxidase which was diluted in 1:1000 with DEME (100 μL/well), and allowed to stand at room temperature for one hour. After washing the plate, 2,2-azinobis(3-ethylbenzothiazoline-6-sulfonic acid) solution (100 μL/well) was placed in the well, and allowed to stand at room temperature for one hour. The reaction was stopped by addition of 2% oxalic acid (100 μL/well), and absorbency at 405 nm was measured. Concentration of apo B in the sample was calculated on the basis of a standard curve of the standard. Inhibition rate (%) was calculated from the assayed values in accordance with the following equation.
Inhibition rate (%)=100×(1 minus (concentration of apo B in sample group/concentration of apo B in DMSO group).
Based on the above equation, 50% inhibition concentration (IC50) was determined.
Inhibitory Activity on MTP and apo B Secretion Inhibition by Metabolites
In a similar manner to Test Examples 1 and 2, the activity of metabolites was assayed.
As to `CN(C)C(=O)c1cc(CC(=O)OCC2(c3ccccc3)CCCC2)ccc1NC(=O)c1ccccc1-c1ccc(C(F)(F)F)cc1` [Example 2-102], the IC50 was determined as 14.6 nM.

Regarding `CN(C)C(=O)c1cc(CC(=O)OCC(CO)(CO)c2ccccc2)ccc1NC(=O)c1ccccc1-c1ccc(C(F)(F)F)cc1` [Example 2-103], the IC50 is 42.6 nM.

Take `CC(=O)OCC(COC(C)=O)(COC(=O)Cc1ccc(NC(=O)c2ccccc2-c2ccc(C(F)(F)F)cc2)c(C(=O)N(C)C)c1)c1ccccc1` [Example 2-104]: the IC50 is 3.58 nM.

In the case of `CCOC(=O)C(COC(=O)Cc1ccc(NC(=O)c2ccccc2-c2ccc(C(F)(F)F)cc2)c(C(=O)N(C)C)c1)(C(=O)OCC)c1cccs1` [Example 2-105], the IC50 came out at 0.2 nM.

Turning to `CCOC(=O)C(COC(=O)Cc1ccc(NC(=O)c2ccccc2-c2ccc(C(F)(F)F)cc2)c(C(=O)N(C)C)c1)(C(=O)OCC)c1ccsc1` [Example 2-106], the IC50 worked out at 0.44 nM.

With `CCOC(=O)C(COC(=O)Cc1cc(C(=O)N(C)C)c(NC(=O)c2ccccc2-c2ccc(C(F)(F)F)cc2)cn1)(C(=O)OCC)c1ccccc1` [Example 2-107], the concentration for half-maximal inhibition (IC50) came out at 50 nM.

Turning to `CCOC(=O)C(COC(=O)Cc1ccc(NC(=O)c2ccccc2-c2ccc(C(F)(F)F)cc2)c(C(=O)N(C)C)c1)(C(=O)OCC)c1sccc1C` [Example 2-108], the IC50 is 0.82 nM.

In the case of `CCOC(=O)C(COC(=O)Cc1ccc(NC(=O)c2ccccc2-c2ccc(C(F)(F)F)cc2)c(C(=O)N(C)C)c1)(C(=O)OCC)c1ccc(C)s1` [Example 2-109], the IC50 is 0.93 nM.

`CCOC(=O)C(COC(=O)Cc1ccc(NC(=O)c2ccccc2-c2ccc(C(F)(F)F)cc2)c(C(=O)N(C)C)c1)(C(=O)OCC)c1nccs1` [Example 2-110]: the IC50 worked out at 0.65 nM.

In the case of `CCCC(COC(=O)Cc1ccc(NC(=O)c2ccccc2-c2ccc(C(F)(F)F)cc2)c(C(=O)N(C)C)c1)(C(=O)OCC)C(=O)OCC` [Example 2-114], the IC50 worked out at 3.1 nM.

As to `CCOC(=O)C(CC)(COC(=O)Cc1ccc(NC(=O)c2ccccc2-c2ccc(C(F)(F)F)cc2)c(C(=O)N(C)C)c1)C(=O)OCC` [Example 2-115], the IC50 turned out to be 44 nM.

For the molecule `C=CCC(COC(=O)Cc1ccc(NC(=O)c2ccccc2-c2ccc(C(F)(F)F)cc2)c(C(=O)N(C)C)c1)(C(=O)OCC)C(=O)OCC` [Example 2-117], the IC50 was 38 nM.

As to `CCOC(=O)C(COC(=O)Cc1ccc(NC(=O)c2ccccc2-c2ccc(C(F)(F)F)cc2)c(C(=O)N(C)C)c1)(C(=O)OCC)C(=O)OCC` [Example 2-118], the IC50 worked out at 49 nM.

On to `CCOC(=O)C(COC(=O)Cc1ccc(NC(=O)c2ccccc2-c2ccc(C(F)(F)F)cc2)c(OCC)c1)(C(=O)OCC)c1ccccc1` [Example 3, 2-(2-{3-Ethoxy-4-[(4′-trifluoromethylbiphenyl-2-carbonyl)amino]phenyl}acetoxymethyl)-2-phenylmalonic acid diethyl ester], for which the concentration for half-maximal inhibition (IC50) turned out to be 1.9 nM.

On to `CCNC(=O)C(COC(=O)Cc1ccc(NC(=O)c2ccccc2-c2ccc(C(F)(F)F)cc2)c(O)c1)(C(=O)NCC)c1ccccc1` [Example 3-2, {3-Hydroxy-4-[(4′-trifluoromethylbiphenyl-2-carbonyl)amino]phenyl}acetic acid 2,2-bisethylcarbamoyl-2-phenylethyl ester], for which the half-inhibitory concentration (IC50) is 4.2 nM.

As to `CCOC(=O)C(COC(=O)Cc1ccc(NC(=O)c2ccccc2-c2ccc(C(F)(F)F)cc2)c(OC(C)C)c1)(C(=O)OCC)c1ccccc1` [Example 3-9], the concentration for half-maximal inhibition (IC50) stood at 1.6 nM.

`CCCOc1cc(CC(=O)OCC(C(=O)NCC)(C(=O)NCC)c2ccccc2)ccc1NC(=O)c1ccccc1-c1ccc(C(F)(F)F)cc1` [Example 3-12]: the IC50 was 0.72 nM.

Regarding `CCNC(=O)C(COC(=O)Cc1ccc(NC(=O)c2ccccc2-c2ccc(C(F)(F)F)cc2)c(OCc2ccccc2)c1)(C(=O)NCC)c1ccccc1` [Example 3-13], the half-inhibitory concentration (IC50) came to 1.9 nM.

On to `CCOC(=O)C(COC(=O)Cc1ccc(NC(=O)c2ccccc2-c2ccc(C(F)(F)F)cc2)c(O)c1)(C(=O)OCC)c1ccccc1` [Example 3-15], for which the IC50 is 49.9 nM.

Regarding `CCNC(=O)C(COC(=O)Cc1ccc(NC(=O)c2ccccc2-c2ccc(C(F)(F)F)cc2)c(N(C)C)c1)(C(=O)NCC)c1ccccc1` [Example 4, 2-{3-Dimethylamino-4-[(4′-trifluoromethylbiphenyl-2-carbonyl)amino]phenyl}acetic acid 2,2-bisethylcarbamoyl-2-phenylethyl ester], the IC50 came out at 0.33 nM.

As to `CCNC(=O)C(COC(=O)Cc1ccc(NC(=O)c2ccccc2-c2ccc(C(F)(F)F)cc2)c(N2CCCCC2)c1)(C(=O)NCC)c1ccccc1` [Example 4-2], the IC50 came to 16 nM.

For `CCNC(=O)C(COC(=O)Cc1ccc(NC(=O)c2ccccc2-c2ccc(C(F)(F)F)cc2)c(N2CCCC2)c1)(C(=O)NCC)c1ccccc1` [Example 4-3], the half-inhibitory concentration (IC50) was 7.9 nM.

For the molecule `CCOC(=O)C(COC(=O)Cc1ccc(NC(=O)c2ccccc2-c2ccc(C(F)(F)F)cc2)c(N2CCCC2)c1)(C(=O)OCC)c1ccccc1` [Example 4-5], the concentration for half-maximal inhibition (IC50) was determined as 5.2 nM.

With `CCOC(=O)C(COC(=O)Cc1ccc(NC(=O)c2ccccc2-c2ccc(C(F)(F)F)cc2)c(N(C)C)c1)(C(=O)OCC)c1ccccc1` [Example 4-6], the concentration for half-maximal inhibition (IC50) came to 7.5 nM.

For the molecule `CCOC(=O)C(COC(=O)Cc1ccc(NC(=O)c2ccccc2-c2ccc(C(F)(F)F)cc2)c(N2CCOCC2)c1)(C(=O)OCC)c1ccccc1` [Example 4-7], the IC50 turned out to be 15 nM.

In the case of `CCOC(=O)C(COC(=O)Cc1ccc(NC(=O)c2ccccc2-c2ccc(C(F)(F)F)cc2)c(N(CC)CC)c1)(C(=O)OCC)c1ccccc1` [Example 4-8], the IC50 is 10 nM.

`CCNC(=O)C(CCOC(=O)Cc1cccc(NC(=O)c2ccccc2-c2ccc(C(F)(F)F)cc2)c1OC)(C(=O)NCC)c1ccccc1` [Example 5-12]: the half-maximal inhibitory concentration (IC50) came to 1.3 nM.

`CCOC(=O)C(CCOC(=O)Cc1cccc(NC(=O)c2ccccc2-c2ccc(C(F)(F)F)cc2)c1OC)(C(=O)OCC)c1ccccc1` [Example 5-13]: the 50% inhibitory concentration (IC50) was determined as 2.4 nM.

With `CCNC(=O)C(CCOC(=O)Cc1cccc(NC(=O)c2ccccc2-c2ccc(C(F)(F)F)cc2)c1OCC)(C(=O)NCC)c1ccccc1` [Example 5-14], the concentration for half-maximal inhibition (IC50) was determined as 0.34 nM.

Consider `CCOC(=O)C(CCOC(=O)Cc1cccc(NC(=O)c2ccccc2-c2ccc(C(F)(F)F)cc2)c1OCC)(C(=O)OCC)c1ccccc1` [Example 5-15], for which the IC50 turned out to be 6.4 nM.

Regarding `CCOC(=O)C(CCOC(=O)Cc1cccc(NC(=O)c2ccccc2-c2ccc(C(F)(F)F)cc2)c1OC(C)C)(C(=O)OCC)c1ccccc1` [Example 5-16], the IC50 came to 3 nM.

On to `CCOC(=O)C(CCOC(=O)Cc1cccc(NC(=O)c2ccccc2-c2ccc(C(F)(F)F)cc2)c1C(=O)OC)(C(=O)OCC)c1ccccc1` [Example 5-17], for which the IC50 amounted to 5.2 nM.

On to `CCNC(=O)C(COC(=O)Cc1ccc2c(c1)oc(=O)n2C(=O)c1ccccc1-c1ccc(C(F)(F)F)cc1)(C(=O)NCC)c1ccccc1` [Example 9-3, [2-Oxo-3-(4′-trifluoromethylbiphenyl-2-carbonyl)-2,3-dihydrobenzoxazol-6-yl]acetic acid 2,2-bisethylcarbamoyl-2-phenylethyl ester], for which the IC50 came out at 59 nM.

The values above are taken from patent US7625948B2, “Ester compound and medicinal use thereof” (Japan Tobacco Inc., priority 2002, dated 2009).
